Measured values taken from ChEMBL document CHEMBL1152909, “Low molecular weight non-peptide mimics of omega-conotoxin GVIA” (Bioorg Med Chem Lett, 2009).
pEC50: −log10 of the molar value. Active and inactive are the calls of the source. The calls are words filed in the database; no cut-off is given here.

target: Voltage-dependent N-type calcium channel subunit alpha-1B (Rattus norvegicus, UniProt Q02294); experiment: (§1) Inhibition of rat neuronal Cav2.2 channel
Sequence (Q02294 whole entry): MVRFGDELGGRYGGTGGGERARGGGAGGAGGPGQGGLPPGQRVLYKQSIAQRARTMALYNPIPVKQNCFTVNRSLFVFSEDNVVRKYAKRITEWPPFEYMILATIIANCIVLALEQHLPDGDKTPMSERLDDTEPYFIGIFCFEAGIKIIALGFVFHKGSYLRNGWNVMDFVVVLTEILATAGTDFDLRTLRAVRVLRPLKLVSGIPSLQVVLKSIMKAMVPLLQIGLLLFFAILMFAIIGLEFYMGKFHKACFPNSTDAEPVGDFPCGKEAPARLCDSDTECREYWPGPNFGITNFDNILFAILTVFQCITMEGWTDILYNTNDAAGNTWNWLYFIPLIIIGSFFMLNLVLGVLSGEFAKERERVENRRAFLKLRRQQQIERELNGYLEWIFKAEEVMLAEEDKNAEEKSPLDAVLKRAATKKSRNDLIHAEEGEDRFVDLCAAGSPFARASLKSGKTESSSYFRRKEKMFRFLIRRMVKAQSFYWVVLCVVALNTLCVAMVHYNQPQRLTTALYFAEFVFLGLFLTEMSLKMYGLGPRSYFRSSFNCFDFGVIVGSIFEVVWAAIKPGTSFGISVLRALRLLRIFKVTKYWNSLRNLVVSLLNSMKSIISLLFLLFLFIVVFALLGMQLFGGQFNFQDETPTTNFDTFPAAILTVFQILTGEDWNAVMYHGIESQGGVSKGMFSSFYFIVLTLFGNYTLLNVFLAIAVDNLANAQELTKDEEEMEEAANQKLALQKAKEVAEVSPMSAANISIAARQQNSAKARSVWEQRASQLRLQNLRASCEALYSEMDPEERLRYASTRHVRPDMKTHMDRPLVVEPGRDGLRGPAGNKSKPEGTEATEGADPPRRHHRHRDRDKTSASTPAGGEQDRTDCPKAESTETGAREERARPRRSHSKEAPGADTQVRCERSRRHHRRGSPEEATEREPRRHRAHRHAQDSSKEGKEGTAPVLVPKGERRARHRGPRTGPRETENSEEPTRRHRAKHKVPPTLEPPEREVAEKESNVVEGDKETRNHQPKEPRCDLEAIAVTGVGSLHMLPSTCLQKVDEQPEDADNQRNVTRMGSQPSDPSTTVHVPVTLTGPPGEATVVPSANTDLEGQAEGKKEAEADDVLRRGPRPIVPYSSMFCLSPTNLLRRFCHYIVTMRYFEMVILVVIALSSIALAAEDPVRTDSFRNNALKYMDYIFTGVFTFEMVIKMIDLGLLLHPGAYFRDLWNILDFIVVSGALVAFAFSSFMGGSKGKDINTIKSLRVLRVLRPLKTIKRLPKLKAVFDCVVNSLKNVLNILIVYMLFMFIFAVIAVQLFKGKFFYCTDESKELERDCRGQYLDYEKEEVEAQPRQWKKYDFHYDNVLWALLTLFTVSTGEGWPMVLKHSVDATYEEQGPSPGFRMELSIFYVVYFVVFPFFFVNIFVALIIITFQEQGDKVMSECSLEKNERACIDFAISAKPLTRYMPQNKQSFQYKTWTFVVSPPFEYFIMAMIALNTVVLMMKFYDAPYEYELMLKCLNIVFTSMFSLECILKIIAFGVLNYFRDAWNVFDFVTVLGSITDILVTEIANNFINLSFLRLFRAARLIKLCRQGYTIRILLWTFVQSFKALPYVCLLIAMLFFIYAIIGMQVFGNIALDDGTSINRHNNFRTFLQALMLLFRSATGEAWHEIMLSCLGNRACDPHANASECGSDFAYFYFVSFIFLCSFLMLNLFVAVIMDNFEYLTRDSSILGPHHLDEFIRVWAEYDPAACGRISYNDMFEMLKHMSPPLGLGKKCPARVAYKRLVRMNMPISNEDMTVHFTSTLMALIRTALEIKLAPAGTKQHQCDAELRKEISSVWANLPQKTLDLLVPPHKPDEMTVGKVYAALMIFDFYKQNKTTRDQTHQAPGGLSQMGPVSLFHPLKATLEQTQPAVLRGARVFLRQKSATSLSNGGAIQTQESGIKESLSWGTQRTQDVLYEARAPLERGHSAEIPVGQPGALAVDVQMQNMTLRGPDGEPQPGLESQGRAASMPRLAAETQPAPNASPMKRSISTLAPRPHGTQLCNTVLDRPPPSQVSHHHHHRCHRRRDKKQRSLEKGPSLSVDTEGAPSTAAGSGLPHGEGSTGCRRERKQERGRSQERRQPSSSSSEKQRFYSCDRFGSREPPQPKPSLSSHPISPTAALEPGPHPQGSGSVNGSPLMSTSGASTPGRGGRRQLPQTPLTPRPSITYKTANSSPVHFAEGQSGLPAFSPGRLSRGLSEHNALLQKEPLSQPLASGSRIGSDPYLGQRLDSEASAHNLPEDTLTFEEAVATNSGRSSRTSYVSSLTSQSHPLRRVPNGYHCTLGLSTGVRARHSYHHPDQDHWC

SMILES	pEC50
NCCCOc1ccc(CNCC(c2ccccc2)c2ccccc2)cc1	< 4.00
NCCCOc1ccc(CNc2ccc(Oc3ccccc3)cc2)cc1	4.47
NC(N)=NCCCOc1ccc(CNCC(c2ccccc2)c2ccccc2)cc1	4.92
NCCCOc1ccccc1C(=O)N(Cc1ccc(OCCCN=C(N)N)cc1)c1nc2ccc(Oc3ccc(O)cc3)cc2s1	5.75
NCCCOc1ccc(CNc2nc3ccc(Oc4ccccc4)cc3s2)cc1	4.12
NC(N)=NCCCOc1ccccc1C(=O)Nc1nc2ccc(Oc3ccccc3)cc2s1	4.48
NCCCOc1ccccc1C(=O)N(Cc1ccc(OCCCN=C(N)N)cc1)c1nc2ccc(Oc3ccccc3)cc2s1	5.51
NCCCOc1ccc(CNC(c2ccccc2)c2ccccc2)cc1	< 4.00
NC(N)=NCCCOc1ccc(CNc2nc3ccc(Oc4ccccc4)cc3s2)cc1	5.24
NC(N)=NCCCOc1ccc(CNC(c2ccccc2)c2ccccc2)cc1	4.64
NCCCOc1ccc(CN(C(=O)c2ccccc2OCCCN)c2nc3ccc(Oc4ccc(O)cc4)cc3s2)cc1	5.50
NCCCOc1ccccc1C(=O)Nc1nc2ccc(Oc3ccccc3)cc2s1	< 4.00
NC(N)=NCCCOc1ccc(CNc2ccc(Oc3ccccc3)cc2)cc1	4.68

target: Voltage-dependent N-type calcium channel subunit alpha-1B (Rattus norvegicus) (UniProt Q02294); experiment: as §1
Sequence (Q02294 whole entry, looked up): as the sequence (Q02294 whole entry) above

SMILES	Activity
[N-]=[N+]=NCCCOc1ccc(CNc2nc3ccc(Oc4ccccc4)cc3s2)cc1	inactive
CC(C)(C)OC(=O)NCCCOc1ccc(CNc2nc3ccc(Oc4ccccc4)cc3s2)cc1	inactive
ClCCCOc1ccc(CNc2nc3ccc(Oc4ccccc4)cc3s2)cc1	inactive
Oc1ccc(CNc2nc3ccc(Oc4ccccc4)cc3s2)cc1	inactive
